Activity calls are given as the source filed them. The calls are words filed in the database; no cut-off is given here.
Tests used:
Rattus norvegicus [1] = experiment: Antihyperglycemic activity in Wistar albino rat streptozotocin-induced diabetic model assessed as reduction of blood glucose level at 30 mg/kg, po after 5 hrs (reference value: 372.2 +/- 16.6 mg/dl); type: functional
Rattus norvegicus [2] = experiment: Antihyperglycemic activity in Wistar albino rat streptozotocin-induced diabetic model assessed as reduction of blood glucose level at 30 mg/kg, po after 4 hrs (reference value: 373.5 +/- 15.6 mg/dl); type: functional
Rattus norvegicus [3] = experiment: Antihyperglycemic activity in Wistar albino rat streptozotocin-induced diabetic model assessed as reduction of blood glucose level at 30 mg/kg, po after 1 hr (reference value: 389.16 +/- 19 mg/dl); type: functional
Rattus norvegicus [4] = experiment: Antihyperglycemic activity in Wistar albino rat streptozotocin-induced diabetic model assessed as reduction of blood glucose level at 20 mg/kg, po after 6 hrs (reference value: 372.5 +/- 15.6 mg/dl); type: functional
Rattus norvegicus [5] = experiment: Antihyperglycemic activity in Wistar albino rat streptozotocin-induced diabetic model assessed as reduction of blood glucose level at 20 mg/kg, po after 5 hrs (reference value: 372.2 +/- 16.6 mg/dl); type: functional
Rattus norvegicus [6] = experiment: Antihyperglycemic activity in Wistar albino rat streptozotocin-induced diabetic model assessed as reduction of blood glucose level at 20 mg/kg, po after 4 hrs (reference value: 373.5 +/- 15.6 mg/dl); type: functional
Rattus norvegicus [7] = experiment: Antihyperglycemic activity in Wistar albino rat streptozotocin-induced diabetic model assessed as reduction of blood glucose level at 20 mg/kg, po after 3 hrs (reference value: 384.33 +/- 17.33 mg/dl); type: functional
Rattus norvegicus [8] = experiment: Hypoglycemic activity in Wistar albino rat assessed as reduction of blood glucose level at 60 mg/kg, po after 4 hrs (reference value: 75.8 +/- 4.7 mg/dl); type: ADME, organism-based; parameters: dose 60 mg/kg, route oral; conditions: in vivo
Rattus norvegicus [9] = experiment: Hypoglycemic activity in Wistar albino rat assessed as reduction of blood glucose level at 60 mg/kg, po after 3 hrs (reference value: 76.3 +/- 5.4 mg/dl); type: ADME, organism-based; parameters: dose 60 mg/kg, route oral; conditions: in vivo
Rattus norvegicus [10] = experiment: Hypoglycemic activity in Wistar albino rat assessed as reduction of blood glucose level at 60 mg/kg, po after 2 hrs (reference value: 76.5 +/- 3.7 mg/dl); type: ADME, organism-based; parameters: dose 60 mg/kg, route oral; conditions: in vivo
Rattus norvegicus [11] = experiment: Hypoglycemic activity in Wistar albino rat assessed as reduction of blood glucose level at 30 mg/kg, po after 6 hrs (reference value: 73.3 +/- 4.4 mg/dl); type: ADME, organism-based; parameters: dose 30 mg/kg, route oral; conditions: in vivo
Rattus norvegicus [12] = experiment: Hypoglycemic activity in Wistar albino rat assessed as reduction of blood glucose level at 30 mg/kg, po after 5 hrs (reference value: 73.8 +/- 4.5 mg/dl); type: ADME, organism-based; parameters: dose 30 mg/kg, route oral; conditions: in vivo
Rattus norvegicus [13] = experiment: Hypoglycemic activity in Wistar albino rat assessed as reduction of blood glucose level at 30 mg/kg, po after 2 hrs (reference value: 76.5 +/- 3.7 mg/dl); type: ADME, organism-based; parameters: dose 30 mg/kg, route oral; conditions: in vivo
Rattus norvegicus [14] = experiment: Hypoglycemic activity in Wistar albino rat assessed as reduction of blood glucose level at 30 mg/kg, po after 1 hr (reference value: 71.26 +/- 4.3 mg/dl); type: ADME, organism-based; parameters: dose 30 mg/kg, route oral; conditions: in vivo
Rattus norvegicus [15] = experiment: Hypoglycemic activity in Wistar albino rat assessed as reduction of blood glucose level at 20 mg/kg, po after 5 hrs (reference value: 73.8 +/- 4.5 mg/dl); type: ADME, organism-based; parameters: dose 20 mg/kg, route oral; conditions: in vivo
Rattus norvegicus [16] = experiment: Hepatotoxicity in Wistar albino rat assessed as AST, ALT and ALP level in serum at 30 mg/kg, po qd for 30 days; type: toxicity, organism-based; parameters: dose 30 mg/kg, route oral; conditions: in vivo, 720 h
Rattus norvegicus [17] = experiment: Renalprotective activity in Wistar albino rat assessed as protection against streptozotocin-induced increase in urea level in blood at 30 mg/kg, po qd for 30 days; type: functional
Rattus norvegicus [18] = experiment: Renaltoxicity in Wistar albino rat assessed as creatinine level in blood at 30 mg/kg, po qd for 30 days; type: organism-based; parameters: dose 30 mg/kg, route oral; conditions: in vivo, 720 h
Rattus norvegicus [19] = experiment: Antihyperlipidemic activity in Wistar albino rat streptozotocin-induced diabetic model assessed as increase of serum HDL-cholesterol level at 30 mg/kg, po qd for 30 days; type: functional, organism-based; parameters: dose 30 mg/kg
Rattus norvegicus [20] = experiment: Antihyperlipidemic activity in Wistar albino rat streptozotocin-induced diabetic model assessed as reduction of serum triglyceride level at 30 mg/kg, po qd for 30 days; type: functional, organism-based; parameters: dose 30 mg/kg
Rattus norvegicus [21] = experiment: Antihyperglycemic activity in Wistar albino rat streptozotocin-induced diabetic model assessed as reduction of fasting blood glucose level at 30 mg/kg, po qd measured on day 30 relative to control; type: functional
Rattus norvegicus [22] = experiment: Antihyperglycemic activity in Wistar albino rat streptozotocin-induced diabetic model assessed as reduction of fasting blood glucose level at 30 mg/kg, po qd measured on day 1 (reference value: 416.4 +/- 24.2 mg/dl); type: functional
Rattus norvegicus [23] = experiment: Antihyperglycemic activity in glucose loaded Wistar albino rat streptozotocin-induced diabetic model assessed as reduction of blood glucose level at 30 mg/kg, po after 1 hr by oral glucose tolerance test; type: functional, organism-based; parameters: dose 30 mg/kg
Rattus norvegicus [24] = experiment: Antihyperglycemic activity in Wistar albino rat streptozotocin-induced diabetic model assessed as reduction of blood glucose level at 60 mg/kg, po after 3 hrs (reference value: 384.33 +/- 17.33 mg/dl); type: functional
Rattus norvegicus [25] = experiment: Antihyperglycemic activity in Wistar albino rat streptozotocin-induced diabetic model assessed as reduction of blood glucose level at 30 mg/kg, po after 6 hrs (reference value: 372.5 +/- 15.6 mg/dl); type: functional

Work on Oc1ccccc1CNc1ccc(NCc2ccccc2O)cc1 yielded an Activity (Rattus norvegicus [1]) of 172.8 mg/dL, an Activity (Rattus norvegicus [2]) of 215.6 mg/dL and an Activity (Rattus norvegicus [3]) of 315.2 mg/dL. The Activity (Rattus norvegicus [4]) was 223.28 mg/dL, the Activity (Rattus norvegicus [5]) was 204.8 mg/dL and the Activity (Rattus norvegicus [6]) was 265.16 mg/dL. The Activity (Rattus norvegicus [7]) was 301.3 mg/dL, the Activity (Rattus norvegicus [8]) was 79.3 mg/dL and the Activity (Rattus norvegicus [9]) was 73.6 mg/dL. For the same compound, the Activity (Rattus norvegicus [10]) was 71.3 mg/dL, the Activity (Rattus norvegicus [11]) was 72.5 mg/dL and the Activity (Rattus norvegicus [12]) was 72.8 mg/dL. It also gave an Activity (Rattus norvegicus [13]) of 73.66 mg/dL, an Activity (Rattus norvegicus [14]) of 74.16 mg/dL and an Activity (Rattus norvegicus [15]) of 70.1 mg/dL. For the same compound, the Activity (Rattus norvegicus [16]) was “Non-toxic”, the Activity (Rattus norvegicus [17]) was 54.02 mg/dL and the Activity (Rattus norvegicus [18]) was 0.37 mg/dL. For the same compound, the Activity (Rattus norvegicus [19]) was “Active”, the Activity (Rattus norvegicus [20]) was “Active” and the Activity (Rattus norvegicus [21]) was 113.5 mg/dL. For the same compound, the Activity (Rattus norvegicus [22]) was 333 mg/dL, the Activity (Rattus norvegicus [23]) was “Active” and the Activity (Rattus norvegicus [24]) was 61.4 mg/dL. For the same compound, the Activity (Rattus norvegicus [25]) was 102 mg/dL.

— ChEMBL document CHEMBL2412969, “Antihyperglycemic and antihyperlipidemic activities of 2-(4-[(2-hydroxybenzyl) amino]-phenyl amino-methyl)-phenol in STZ induced diabetic rats” (Eur J Med Chem, 2013)
